# Test system: cats diagnosed with hyperthyroidism
# Test: Six-week feeding/treatment study in hyperthyroid cats (Example 1): thyroid hormone profiles and serum chemistries
# Assay type: in vivo
# Conditions: six weeks
# Description: Food B1 and food B2 were mixed in a 1:1 ratio, thus resulting in food B. A group of five cats diagnosed with hyperthyroidism was fed food B for six weeks. Another live cats diagnosed with hyperthyroidism were given 2.5 mg methimazole orally once a day for six weeks while they were fed food B. Eight eats diagnosed with hyperthyroidism were given 2.5 mg methimazole orally once a day for six weeks while they were fed a commercially available cat food. The thyroid hormone profiles and serum chemistries of all cats were measured at zero, two, four, and six weeks.
# [1] = hyperthyroid cats, methimazole 2.5 mg orally once a day, food B fed
smiles,measurement,setting,value
"Cn1cc[nH]c1=S [Methimazole, methimazole]",Change in Serum Creatinine Levels,[1],+0.46 mg/dL
same,Change in Serum Total T4 Levels,[1],-20.3 nmol/L
same,serum creatinine concentration relative to the normal creatinine concentration range,normal range 0.8-1.8 mg/dL,a bit higher than die 0.8-1.8 mg/dL normal creatinine concentration range
same,serum total T4 concentration relative to the normal total T4 concentration range,normal range printed as 10-55 nmol/dL,did not reach the normal total T4 concentration range

# Source: US20090269416A1, “Compositions and Methods For Preventing or Treating Chronic Renal Failure in Felines With Hyperthyroidism” (HILL'S PET NUTRITION , INC., priority 2006, published 2009)
